Assay [1] has as its system Ctenocephalides felis. Kind of assay: Ctenocephalides felis in vitro contact test with adult cat fleas. Format: in vivo. As to conditions: application rate 5 μg/cm^2 (=500 g/ha); after 48 h; dead or moribund fleas. The procedure:
(§1) For the coating of the test tubes, 9 mg of active ingredient are first dissolved in 1 ml of acetone p.a. and then diluted to the desired concentration with acetone p.a. 250 μl of the solution are distributed homogeneously on the inner walls and the base of a 25 ml glass tube by turning and rocking on an orbital shaker (rocking rotation at 30 rpm for 2 h). With 900 ppm of active ingredient solution and internal surface area 44.7 cm^2, given homogeneous distribution, an area-based dose of 5 μg/cm^2 is achieved.
After the solvent has evaporated off, the tubes are populated with 5-10 adult cat fleas (Ctenocephalides felis), sealed with a perforated plastic lid and incubated in a horizontal position at room temperature and ambient humidity. After 48 h, efficacy is determined. To this end, the tubes are stood upright and the fleas are knocked to the base of the tube. Fleas which remain motionless at the base or move in an uncoordinated manner are considered to be dead or moribund.
100% efficacy means that all the fleas were dead or moribund. 0% efficacy means that no fleas were harmed.

Assay [2] concerns Rhipicephalus sanguineus. The assay is described as follows: Rhipicephalus sanguineus in vitro contact test with adult brown dog ticks. The class given is in vivo. As to conditions: after 48 h. The method, then:
as §1
After the solvent has evaporated off, the tubes are populated with 5-10 adult dog ticks (Rhipicephalus sanguineus), sealed with a perforated plastic lid and incubated in a horizontal position in the dark at room temperature and ambient humidity. After 48 h, efficacy is determined. To this end, the ticks are knocked to the base of the tube and incubated on a hotplate at 45-50° C. for not more than 5 min. Ticks which remain motionless on the base or move in such an uncoordinated manner that they are unable to deliberately avoid the heat by climbing upwards are considered to be dead or moribund.
An efficacy of 100% means that all the ticks were dead or moribund. 0% efficacy means that none of the ticks were harmed.

In assay [3] the test system is Boophilus microplus. Kind of assay: Boophilus microplus injection test. Conditions: 20 μg/animal; assessed after 7 days. The class given is in vivo. The method, then: (§2) • Solvent: dimethyl sulfoxide
1 μl of the active ingredient solution is injected into the abdomen of 5 engorged adult female cattle ticks (Boophilus microplus). The animals are transferred into dishes and kept in a climate-controlled room.

In assay [4] the test system is Ctenocephalides felis. Kind of assay: Ctenocephalides felis oral test. Format: in vivo. Conditions: 100 ppm in citrated cattle blood; after 2 days. The procedure: • Solvent: Dimethyl Sulfoxide
To produce a suitable active ingredient formulation, 10 mg of active ingredient are mixed with 0.5 ml of dimethyl sulfoxide. Dilution with citrated cattle blood gives the desired concentration.
About 20 unfed adult cat fleas (Ctenocephalides fells) are placed into a chamber which is closed at the top and bottom with gauze. A metal cylinder whose bottom end is closed with parafilm is placed onto the chamber. The cylinder contains the blood/active ingredient formulation, which can be imbibed by the fleas through the parafilm membrane.

Assay [5] deals with Spodoptera frugiperda. The assay is described as follows: Spodoptera frugiperda spray test. The class given is in vivo. Conditions: 100 g/ha; after 7 days.
Assay [6] has as its system Tetranychus urticae. Kind of assay: Tetranychus urticae spray test, OP-resistant (bean leaf discs). The class given is in vivo. Conditions: 100 g/ha; after 6 days. The procedure: After 6 days, the efficacy in % is determined.
For assay [7], the system named is Musca domestica. The assay is described as follows: Musca domestica test. Format: in vivo. Conditions: 100 ppm; adult houseflies; after 2 days. The method, then:
as §2
To produce a suitable active ingredient formulation, 10 mg of active ingredient are mixed with 0.5 ml of dimethyl sulfoxide, and the concentrate is diluted with water to the desired concentration.
Vessels containing a sponge treated with sugar solution and the active ingredient formulation of the desired concentration are populated with 10 adult houseflies (Musca domestica).

Assay [8] concerns Phaedon cochleariae. The assay is described as follows: Phaedon cochleariae spray test. As to conditions: 100 g/ha; after 7 days.
The mark [9] stands for this setting: application rate 5 μg/cm^2 (=500 g/ha), dead or moribund ticks.

Turning to `CCC(=O)NC1CCc2ccc(-c3cnn(-c4c(Cl)cc(C(F)(C(F)(F)F)C(F)(F)F)cc4OC(F)F)c3)cc21` (stereo not drawn) [I-Tc-03], the efficacy in assay [1], in assay [2] (setting [9]), in assay [5] and in assay [6] was 100% in each case. In addition, the “efficacy (laying of fertile eggs)” value in assay [3] turned out to be 100%. Further, the “efficacy (rate of extermination)” value in assay [4] came out at 100%.
`CCC(=O)NCc1cc(-c2cnn(-c3c(Cl)cc(C(F)(C(F)(F)F)C(F)(F)F)cc3Cl)c2)ccc1Cl` [Ia-16]: the efficacy in assay [1], in assay [2] (setting [9]), in assay [5] and in assay [8] was 100% each time. Further, the “efficacy (laying of fertile eggs)” value in assay [3] was 100%. Besides, the “efficacy (rate of extermination)” value in assay [4] and in assay [7] was 100% throughout.
With `CC(=O)N(C)Cc1cc(-c2cnn(-c3c(Cl)cc(C(F)(C(F)(F)F)C(F)(F)F)cc3Cl)c2)ccc1Cl` [Ia-20], the efficacy in assay [1] amounted to 100%; in assay [2] (setting [9]), 80%; in assay [5], 100%; in assay [6], 100%; in assay [8], 100%. The “efficacy (laying of fertile eggs)” value in assay [3] amounted to 100%. Moreover, the “efficacy (rate of extermination)” value is reported as 100% in assay [4] and 90% in assay [7].
With `CCC(=O)NCc1cc(-c2cnn(-c3c(Cl)cc(C(F)(C(F)(F)F)C(F)(F)F)cc3Cl)c2)ccc1F` [Ia-30], the efficacy in assay [1], in assay [2] (setting [9]) and in assay [5] was 100% throughout. In addition, the “efficacy (laying of fertile eggs)” value in assay [3] was 100%. Also, the “efficacy (rate of extermination)” value in assay [4] and in assay [7] was 100% in each case.
With `CCC(=O)N(C)Cc1cc(-c2cnn(-c3c(Cl)cc(C(F)(C(F)(F)F)C(F)(F)F)cc3Cl)c2)ccc1Cl` [Ia-32], the efficacy in assay [1] stood at 100%; in assay [2] (setting [9]) it was 80%; in assay [5], 100%; in assay [6] it was 100%; in assay [8], 100%. In addition, the “efficacy (laying of fertile eggs)” value in assay [3] is given as 100%. In assay [4], the “efficacy (rate of extermination)” value is on record as 100%.
On to `O=C(NCc1cc(-c2cnn(-c3c(Cl)cc(C(F)(C(F)(F)F)C(F)(F)F)cc3OC(F)F)c2)ccc1Cl)C1CC1` [Ia-52], for which the efficacy in assay [1], in assay [2] (setting [9]), in assay [5] and in assay [8] was 100% throughout. The “efficacy (laying of fertile eggs)” value in assay [3] is listed as 100%. Also, the “efficacy (rate of extermination)” value in assay [4] and in assay [7] was 100% each time.
Consider `O=C(NCc1cc(-c2cnn(-c3c(Cl)cc(C(F)(C(F)(F)F)C(F)(F)F)cc3C(F)(F)F)c2)ccc1Cl)C1CC1` [Ia-54], for which the efficacy in assay [1] is reported as 80%; in assay [2] (setting [9]), 100%; in assay [5] it was 100%; in assay [8] it was 100%. The “efficacy (laying of fertile eggs)” value in assay [3] came out at 100%. For the same molecule, the “efficacy (rate of extermination)” value in assay [4] and in assay [7] was 100% throughout.
For the molecule `CC(=O)N(C)Cc1cc(-c2cnn(-c3c(Cl)cc(C(F)(C(F)(F)F)C(F)(F)F)cc3OC(F)(F)F)c2)ccc1F` [Ia-63], the efficacy in assay [1] is listed as 100%; in assay [2] (setting [9]), 80%; in assay [5], 100%; in assay [6] it was 100%; in assay [8], 100%. Moreover, the “efficacy (laying of fertile eggs)” value in assay [3] was 100%. Moreover, the “efficacy (rate of extermination)” value in assay [4] and in assay [7] was 100% in each case.
Take `Cc1cc(C(F)(C(F)(F)F)C(F)(F)F)cc(Cl)c1-n1cc(-c2ccc(F)c(CNC(=O)C3CC3)c2)cn1` [Ia-67]: the efficacy in assay [1] came to 80%; in assay [2] (setting [9]) it was 80%; in assay [5], 100%; in assay [6], 100%; in assay [8], 100%. Besides, the “efficacy (laying of fertile eggs)” value in assay [3] stood at 100%. For the same molecule, the “efficacy (rate of extermination)” value in assay [4] and in assay [7] was 100% in each case.
Turning to `CCC(=O)NCc1cccc(-c2cnn(-c3c(C)cc(C(F)(C(F)(F)F)C(F)(F)F)cc3Cl)c2)c1` [Ia-69], the efficacy in assay [1] was 100%; in assay [2] (application rate 1 μg/cm^2 (=100 g/ha)) it was 80%; in assay [5], 100%; in assay [8] it was 100%. The “efficacy (laying of fertile eggs)” value in assay [3] is 100%. Besides, the “efficacy (rate of extermination)” value in assay [4] and in assay [7] was 100% throughout.
On to `CC(=O)NCc1cc(-c2cnn(-c3c(Cl)cc(C(F)(C(F)(F)F)C(F)(F)F)cc3C(F)(F)F)c2)ccc1F` [Ia-82], for which the efficacy in assay [1], in assay [2] (setting [9]), in assay [5], in assay [6] and in assay [8] was 100% in each case. In addition, the “efficacy (laying of fertile eggs)” value in assay [3] is on record as 100%. Besides, the “efficacy (rate of extermination)” value in assay [4] and in assay [7] was 100% in each case.
Take `CC(=O)NCc1cc(-c2cnn(-c3c(Cl)cc(C(F)(C(F)(F)F)C(F)(F)F)cc3C#N)c2)ccc1Cl` [Ia-104]: the efficacy in assay [1], in assay [2] (setting [9]), in assay [5], in assay [6] and in assay [8] was 100% in each case. For the same molecule, the “efficacy (laying of fertile eggs)” value in assay [3] turned out to be 100%. Besides, the “efficacy (rate of extermination)” value in assay [4] and in assay [7] was 100% in each case.
Turning to `N#Cc1cc(C(F)(C(F)(F)F)C(F)(F)F)cc(Cl)c1-n1cc(-c2ccc(F)c(CNC(=O)C3CC3)c2)cn1` [Ia-107], the efficacy in assay [1], in assay [5], in assay [6] and in assay [8] was 100% throughout. In addition, the “efficacy (laying of fertile eggs)” value in assay [3] amounted to 100%. For the same molecule, the “efficacy (rate of extermination)” value in assay [4] and in assay [7] was 100% throughout.
On to `C=CCN(Cc1cc(-c2cnn(-c3c(Cl)cc(C(F)(C(F)(F)F)C(F)(F)F)cc3Cl)c2)ccc1Cl)C(C)=O` [Ia-113], for which the efficacy in assay [1] turned out to be 100%; in assay [5], 100%; in assay [6], 90%; in assay [8], 100%. The “efficacy (laying of fertile eggs)” value in assay [3] came to 100%. The “efficacy (rate of extermination)” value in assay [4] and in assay [7] was 100% in each case.
For the molecule `CC(=O)N(Cc1cc(-c2cnn(-c3c(Cl)cc(C(F)(C(F)(F)F)C(F)(F)F)cc3Cl)c2)ccc1Cl)CC1CC1` [Ia-116], the efficacy in assay [1] amounted to 100%; in assay [2] (setting [9]), 80%; in assay [5] it was 100%; in assay [6] it was 100%; in assay [8] it was 100%. The “efficacy (laying of fertile eggs)” value in assay [3] is 100%. The “efficacy (rate of extermination)” value in assay [4] and in assay [7] was 100% throughout.
On to `CC(=O)NCc1cc(-c2cnn(-c3c(Cl)cc(C(F)(C(F)(F)F)C(F)(F)F)cc3Cl)c2)cnc1Cl` [Ia-130], for which the efficacy in assay [1] came to 100%; in assay [5], 100%; in assay [6] it was 90%; in assay [8], 100%. In addition, in assay [3], the “efficacy (laying of fertile eggs)” value turned out to be 100%. Besides, the “efficacy (rate of extermination)” value in assay [4] and in assay [7] was 100% in each case.
`CC(=O)NCc1c(F)ccc(-c2cnn(-c3c(Cl)cc(C(F)(C(F)(F)F)C(F)(F)F)cc3OC(F)F)c2)c1F` [Ia-158]: the efficacy in assay [1], in assay [5], in assay [6] and in assay [8] was 100% throughout. Moreover, in assay [3], the “efficacy (laying of fertile eggs)” value worked out at 100%. Further, the “efficacy (rate of extermination)” value in assay [4] and in assay [7] was 100% each time.
